Target: T1, melatonin ML1A receptor (Homo sapiens, UniProt P48039)
T1 construct: expressed in transfected cells; membrane homogenates
Assay: Melatonergic binding (2-[125I]-iodomelatonin, membrane homogenates of NIH-3T3 cells expressing ML1A receptor)
Details: 37° C. for 1 hour, NIH-3T3 cell membranes, read-out: IC50, binding affinity for melatonin receptors
Source text: The compounds of the invention are melatonergic agents. […] Further, the compounds are agonists as determined by their ability, like melatonin, to block the forskolin-stimulated accumulation of cAMP in certain cells. Due to these properties, the compounds and compositions of the invention should be useful as sedatives, chronobiotic agents, anxiolytics, antipsychotics, analgesics, and the like. Specifically, these agents should find use in the treatment of stress, sleep disorders, seasonal depression, appetite regulation, shifts in circadian cycles, melancholia, jet-lag, glaucoma, reproductive disorders, cancer, premenstrual syndrome, immune disorders, inflammatory diseases, neuroendocrine disorders and related conditions.
The melatonergic binding properties of compounds of the invention were measured using the following procedure.
(a) TME=50 mM Tris buffer containing 12.5 mM MgCl2, and 2 mM EDTA, pH 7.4 at 37° C. with concentrated HCl.
(b) Wash buffer: 20 mM Tris base containing 2 mM MgCl2. pH 7.4 at room temperature.
(c) 10^-4 M melatonin (10^-5 M final concentration).
(d) 2-[^125 I]-iodomelatonin, […] final concentration.
The melatonin ML1A receptor cDNA was subcloned into pcDNA3 and introduced into NIH-3T3 cells using Lipofectamine. […]

T1 sequence (P48039 whole entry): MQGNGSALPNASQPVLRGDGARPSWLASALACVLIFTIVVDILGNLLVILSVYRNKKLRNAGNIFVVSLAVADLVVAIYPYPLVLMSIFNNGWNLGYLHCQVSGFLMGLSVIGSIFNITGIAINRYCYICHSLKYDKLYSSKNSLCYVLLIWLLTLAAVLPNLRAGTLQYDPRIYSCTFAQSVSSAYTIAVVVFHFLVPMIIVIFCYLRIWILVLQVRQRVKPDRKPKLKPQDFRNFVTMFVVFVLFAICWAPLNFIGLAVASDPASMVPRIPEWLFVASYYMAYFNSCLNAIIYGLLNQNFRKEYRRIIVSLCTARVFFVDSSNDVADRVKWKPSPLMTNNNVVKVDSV

Compound	IC50
CCC(=O)NCCC1c2ccccc2-c2ccc3c(c21)CCO3 (centres unmarked) [Example 1, N-[2-(2,10-dihydro-1H-fluoreno[2,1-b]furan-10-yl)ethyl]propanamide]	< 0.025 µM
CCC(=O)NCCC1c2cc(OC)ccc2-c2ccc3c(c21)OCO3 (centres unmarked) [Example 2, N-[2-(8-Methoxy-10H-fluoreno[1,2-d]-1,3-dioxol-10-yl)ethyl]propanamide]	< 0.025 µM

From patent publication US5948817A, “Polycyclic ethyl alkylamide melatonergic agents” (Bristol-Myers Squibb Company, priority 1998, dated 1999)
